In PubChem BioAssay AID248 (DTP/NCI, 2004):
Several values for one entry are separate records, joined by “and”; a condition that tells them apart may be missing. Identical values can stand only once. Toxic doses and inconclusive results are not listed. No stated cut-off is given here; in the data, active means T/C of 150% or more; inactive means T/C below 125%. Peptide text beside a SMILES is read from it. * marks the point of attachment. Boc = CC(C)(C)OC(=O)*

Test system: L1210 leukemia ip in BDF1 mice, survival T/C
Assay: NCI In Vivo Anticancer Drug Screen. Data for tumor model L1210 Leukemia (intraperitoneal) in B6D2F1 (BDF1) mice
Details: endpoint: mean survival time, higher = longer survival
Outline: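 Value reflects the ratio of survival in compound-treated mice to survival in vehicle-treated controls, with both groups carrying the same transplanted tumor.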

[1] = dose: 100.0 mg/kg/injection, schedule: Q01DX009 (ip), vehicle: saline
[2] = dose: 100.0 mg/kg/injection, schedule: Q04DX003 (ip), vehicle: saline
[3] = dose: 200.0 mg/kg/injection, schedule: Q04DX003 (ip), vehicle: saline
[4] = dose: 400.0 mg/kg/injection, schedule: Q04DX003 (ip), vehicle: saline
[5] = dose: 100.0 mg/kg/injection, schedule: Q04DX003 (ip), vehicle: acetone
[6] = dose: 200.0 mg/kg/injection, schedule: Q04DX003 (ip), vehicle: acetone
[7] = dose: 25.0 mg/kg/injection, schedule: Q01DX009 (ip), vehicle: Klucel (hydroxypropylcellulose) (HPC)
[8] = dose: 50.0 mg/kg/injection, schedule: Q01DX009 (ip), vehicle: Klucel (hydroxypropylcellulose) (HPC)
[9] = dose: 100.0 mg/kg/injection, schedule: Q01DX009 (ip), vehicle: Klucel (hydroxypropylcellulose) (HPC)
[10] = dose: 200.0 mg/kg/injection, schedule: Q01DX009 (ip), vehicle: Klucel (hydroxypropylcellulose) (HPC)
[11] = dose: 100.0 mg/kg/injection, schedule: Q01DX001 (ip), vehicle: Klucel (hydroxypropylcellulose) (HPC)
[12] = dose: 100.0 mg/kg/injection, schedule: Q04DX003 (ip), vehicle: Klucel (hydroxypropylcellulose) (HPC)
[13] = dose: 200.0 mg/kg/injection, schedule: Q01DX001 (ip), vehicle: Klucel (hydroxypropylcellulose) (HPC)
[14] = dose: 400.0 mg/kg/injection, schedule: Q01DX001 (ip), vehicle: Klucel (hydroxypropylcellulose) (HPC)
[15] = dose: 400.0 mg/kg/injection, schedule: Q04DX003 (ip), vehicle: Klucel (hydroxypropylcellulose) (HPC)
[16] = dose: 100.0 mg/kg/injection, schedule: Q04DX002 (ip), vehicle: Klucel (hydroxypropylcellulose) (HPC)
[17] = dose: 200.0 mg/kg/injection, schedule: Q04DX002 (ip), vehicle: Klucel (hydroxypropylcellulose) (HPC)
[18] = dose: 400.0 mg/kg/injection, schedule: Q04DX002 (ip), vehicle: Klucel (hydroxypropylcellulose) (HPC)
[19] = dose: 100.0 mg/kg/injection, schedule: Q01DX009 (ip), vehicle: saline with Tween-80
[20] = dose: 200.0 mg/kg/injection, schedule: Q01DX009 (ip), vehicle: saline with Tween-80
[21] = dose: 200.0 mg/kg/injection, schedule: Q04DX003 (ip), vehicle: Klucel (hydroxypropylcellulose) (HPC)

Measured: T/C

O=c1[nH]c(=S)[nH]c2c1CP(=S)(c1ccccc1)CC2 (configuration not stated)
inactive: dose: 100.0 mg/kg/injection, schedule: Q04DX002 (ip), vehicle: saline with Tween-80 106 % of control | dose: 200.0 mg/kg/injection, schedule: Q04DX002 (ip), vehicle: saline with Tween-80 100 % of control | dose: 400.0 mg/kg/injection, schedule: Q04DX002 (ip), vehicle: saline with Tween-80 100 % of control

C=CCn1c(-c2cccs2)nc2c(Cl)ncnc21
inactive: dose: 24.0 mg/kg/injection, schedule: Q01DX009 (ip), vehicle: steriod suspending solution 88 % of control | dose: 39.0 mg/kg/injection, schedule: Q01DX009 (ip), vehicle: steriod suspending solution 90 % of control

NC(=O)c1cc(Cl)cc(Cl)c1Br
inactive: dose: 100.0 mg/kg/injection, schedule: Q04DX003 (ip), vehicle: other 95 % of control | dose: 200.0 mg/kg/injection, schedule: Q04DX003 (ip), vehicle: other 103 % of control

CCC#CC#CCC
inactive: dose: 100.0 mg/kg/injection, schedule: Q01DX001 (ip), vehicle: saline 97 % of control | [1] 96 % of control | dose: 200.0 mg/kg/injection, schedule: Q01DX001 (ip), vehicle: saline 108 % of control | dose: 400.0 mg/kg/injection, schedule: Q01DX001 (ip), vehicle: saline 112 % of control

O=C1c2ccccc2C(=O)c2c(O)c(Cc3ccccc3)cc(O)c21
inactive: [2] 105 % of control | [3] 97 % of control | [4] 97 % of control

COc1ccc([N+](=O)[O-])c2c1CONC2c1c(CO)cnc(C)c1O (configuration not stated)
inactive: [5] 90 % of control | [6] 96 % of control | dose: 400.0 mg/kg/injection, schedule: Q04DX003 (ip), vehicle: acetone 89 % of control

CC(C)C(=O)NNCc1ccccc1
inactive: dose: 12.5 mg/kg/injection, schedule: Q01DX009 (ip), vehicle: Klucel (hydroxypropylcellulose) (HPC) 106 % of control | [7] 104 % of control | [8] 97 % of control | [9] 92 % of control

CCSc1nc(N)nc2c1ncn2C
inactive: dose: 100.0 mg/kg/injection, schedule: Q01DX001 (ip), vehicle: acetone 94 % of control | dose: 200.0 mg/kg/injection, schedule: Q01DX001 (ip), vehicle: acetone 91 % of control | dose: 400.0 mg/kg/injection, schedule: Q01DX001 (ip), vehicle: acetone 90 % of control

O=C1CSC(=S)N1c1ccco1
inactive: [1] 102 % of control | [2] 93 % of control | dose: 200.0 mg/kg/injection, schedule: Q01DX009 (ip), vehicle: saline 102 % of control | [3] 88 % of control | [4] 93 % of control

CCOC(=O)c1cnc2c(ccc3cc(OC)ccc32)c1NCCCN(CC)CC
inactive: [8] 105 % of control | [9] 108 % of control | [10] 94 % of control

CC(=O)N(C(=O)c1ccccc1)c1ccc(NS(=O)(=O)c2ccc(C)cc2)cc1
inactive: [11] 91 % of control | [12] 94 % of control | [13] 100 % of control | [14] 100 % of control | [15] 90 % of control

O=c1ccc2ccccc2[nH]1
inactive: [11] 108 % of control | dose: 100.0 mg/kg/injection, schedule: Q01DX001 (ip), vehicle: other 105 % of control | [13] 111 % of control | dose: 200.0 mg/kg/injection, schedule: Q01DX001 (ip), vehicle: other 92 % of control | [14] 113 % of control

COC1=NS(=O)(=O)C=C(c2ccccc2)O1
inactive: dose: 300.0 mg/kg/injection, schedule: Q04DX002 (ip), vehicle: Klucel (hydroxypropylcellulose) (HPC) 100 % of control

O=C(O)c1ccc(NC(=S)S)cc1
inactive: [16] 103 % of control | [17] 98 % of control | [18] 98 % of control

O=C(N/N=C(\C=N\NC(=O)c1ccccc1)CC(O)CO)c1ccccc1 (configuration not stated)
inactive: [7] 93 % of control | [8] 91 % of control | [9] 91 % of control | dose: 100.0 mg/kg/injection, schedule: Q04DX003 (ip), vehicle: saline with Tween-80 94 % of control | dose: 200.0 mg/kg/injection, schedule: Q04DX003 (ip), vehicle: saline with Tween-80 93 % of control

OCc1cc2ccccc2cc1F
inactive: dose: 50.0 mg/kg/injection, schedule: Q01DX009 (ip), vehicle: saline with Tween-80 105 % of control | [19] 92 % of control | [5] 100 % of control | [20] 103 % of control | [6] 87 % of control

CNC(=O)CCCOC(=O)c1ccc([N+](=O)[O-])cc1
inactive: dose: 25.0 mg/kg/injection, schedule: Q04DX002 (ip), vehicle: Klucel (hydroxypropylcellulose) (HPC) 108 % of control | dose: 50.0 mg/kg/injection, schedule: Q04DX002 (ip), vehicle: Klucel (hydroxypropylcellulose) (HPC) 108 % of control | [16] 104 % of control

O=C(Sc1cccc2ccccc12)c1ccc([N+](=O)[O-])cc1
inactive: [12] 95 % of control | [21] 97 % of control | [15] 95 % of control

NC(N)=N/N=C\CCC/C=N/N=C(N)N
inactive: dose: 15.0 mg/kg/injection, schedule: Q01DX Z (ip), vehicle: saline 98 % of control | dose: 30.0 mg/kg/injection, schedule: Q01DX Z (ip), vehicle: saline 97 % of control | dose: 60.0 mg/kg/injection, schedule: Q01DX Z (ip), vehicle: saline 105 % of control | dose: 60.0 mg/kg/injection, schedule: Q01DX Z (oral), vehicle: other 95 % of control | dose: 120.0 mg/kg/injection, schedule: Q01DX Z (ip), vehicle: saline 94 % of control | dose: 120.0 mg/kg/injection, schedule: Q01DX Z (oral), vehicle: other 100 % of control | dose: 240.0 mg/kg/injection, schedule: Q01DX Z (oral), vehicle: other 97 % of control | dose: 480.0 mg/kg/injection, schedule: Q01DX Z (oral), vehicle: other 102 % of control

Fc1cc(F)c(CCl)c(F)c1
inactive: dose: 100.0 mg/kg/injection, schedule: Q01DX009 (ip), vehicle: acetone 94 % of control

O=S(=O)(CCS(=O)(=O)c1ccccc1)c1ccccc1
inactive: dose: 50.0 mg/kg/injection, schedule: Q01DX009 (ip), vehicle: saline 94 % of control | [16] 92 % of control | dose: 150.0 mg/kg/injection, schedule: Q01DX009 (ip), vehicle: saline 97 % of control | [17] 92 % of control | [18] 88 % of control

C[n+]1cccc(C(=O)N/N=C/c2ccccc2)c1
inactive: dose: 100.0 mg/kg/injection, schedule: Q01DX001 (ip), vehicle: saline with Tween-80 96 % of control | dose: 200.0 mg/kg/injection, schedule: Q01DX001 (ip), vehicle: saline with Tween-80 96 % of control | dose: 400.0 mg/kg/injection, schedule: Q01DX001 (ip), vehicle: saline with Tween-80 96 % of control

COC(=O)CNC(=O)C1CCCN1C(=O)C(Cc1c[nH]c2ccccc12)NC(=O)OC(C)(C)C (stereo not drawn) (Boc-Trp-Pro-Gly-OMe; configuration not given here)
inactive: [19] 88 % of control | [20] 100 % of control | dose: 400.0 mg/kg/injection, schedule: Q01DX009 (ip), vehicle: saline with Tween-80 100 % of control

O=C(O)C1CCCCC1C(=O)O (configuration not stated)
inactive: [11] 103 % of control | [12] 101 % of control | [2] 95 % of control | [13] 91 % of control | [21] 97 % of control | [3] 98 % of control | [14] 93 % of control | [15] 97 % of control | [4] 98 % of control

OC(CI)C(O)CI (configuration not stated)
inactive: dose: 75.0 mg/kg/injection, schedule: Q01DX001 (ip), vehicle: other 104 % of control | dose: 150.0 mg/kg/injection, schedule: Q01DX001 (ip), vehicle: other 106 % of control and 86 % of control | dose: 300.0 mg/kg/injection, schedule: Q01DX001 (ip), vehicle: other 101 % of control

Cc1cc(CCN)c(C)c2c1sc1ccccc12
inactive: dose: 75.0 mg/kg/injection, schedule: Q01DX001 (ip), vehicle: saline 89 % of control

CCOc1ccc(/C=C2\C=Nc3ccccc32)cc1
inactive: [9] 91 % of control | [10] 99 % of control
